Source: US5457099A, “Carbostyril derivatives and antiallergic agent” (Sawai Pharmaceutical Co., Ltd., priority 1992, dated 1995)
Where two headings read alike, the source gives them in different places.

Experiments:
[1] = system: passive cutaneous anaphylaxis (PCA) reaction in rats; assay: Inhibition of PCA reaction in rats; assay type: in vivo, Wistar rats; details: Rattus norvegicus, po; for inhibition in vivo at 10 mg/kg: read-out: Inhibition of PCA in rat
Protocol: (§1) Antiserum was prepared according to the method described in J. Immunol., 106, 1002 (1971). The titer (or highest effective dilution which gave a mean 48 hours PCA response of 5 mm in diameter in a rat) of the antiserum used was 1:200.
Wistar rats were passively sensitized by intracutaneous injection of 0.05 ml antiserum diluted 75 times with physiological saline at two sheared sites of dorsal skin. After 48 hours, 0.5ml/animal of 1% Evans blue-physiological saline containing 2mg ovalbumin was administered into caudal vein to elicit the reaction. After 30 minutes, rats were sacrificed by decapitative bleeding and the dorsal skin was flayed. Dye stuff exuded at the reaction site was extracted according to the method described in Microbiol. Immunol., 22, 89 (1978). Briefly, two circular pieces of sensitized areas and one circular piece of unsensitized area (as the control) were punched at 1.8 cm diameter. The disks were placed in test tubes and treated overnight with 1 ml 1N-KOH at 37° C. Then 9ml 0.6N-H3 PO4 /acetone (5/13) was added and the mixture was thoroughly stirred and centrifuged (3000 rpm, 10 minutes). The supernatant was assayed for absorption at 620 nm. The amount of dye stuff was calculated from the standard curve previously prepared with known amounts of Evance blue. The conditions of sensitization and the amount of antigen were based on Nippon Yakurigaku Zasshi (Japanese Journal of Pharmacology),80, 261 (1982).
Test drugs and Oxatomide as a positive control were administered orally before 1 hour of elicitation through a gastric tube at 1 ml/200g body weight. In the test, groups of 6 to 7 animals and groups of 8 to 9 animals were used for test drugs and control, respectively.

[2] = system: experimental asthma in guinea pigs; assay: Inhibition of experimental asthma in guinea pigs; assay type: in vivo, Male Hartley guinea pigs; details: p.o., 1 mg/kg; significance vs. control: * p < 0.05, *** p < 0.001
Protocol: Male Hartley guinea pigs (N=10) were passively sensitized by intravenous injection of guinea pig antiovalbumin antiserum (titer for 3 hours PCA: 16000 times) diluted 5 times with physiological saline at a rate of 0.2 ml/animal. After 24 hours, the animal was fixed at dorsal position under urethane anesthetization and connected with a respirator (Harvard Model 683, respiratory volume: 4-6 ml/respiration; respiratory rate: 40/minute) via an incised tracheal cannula. Then 1 mg/kg Gallamine triethiodide was intravenously administered to stop the spontaneous respiration. […] Oxatomide was administered two hours before the challenge by antigen and the test drug (compound III-2) and Ketotifen were administered orally 1 hour before the challenge.

[3] = system: experimental asthma in rats; assay: Inhibition of experimental asthma in rats; assay type: in vivo, Wistar rats; details: Rattus norvegicus, po; for inhibition in vivo at 10 mg/kg: read-out: Inhibition of Experimental Asthma in rat
Protocol: as §1
Wistar rats were passively sensitized by injection into caudal vein of 2.0ml/animal antiserum. After 24 hours, anaphylactic airway contraction caused by administration of antigen was measured by a modified Konzett and Roessler method. Briefly, the animal was fixed at dorsal position under urethane (1.5 g/kg, i.p.) anesthetization and connected with a respirator (Harvard Model 683, respiratory volume: 3-5 ml/respiration; respiratory rate: 72/minute) via an incised tracheal cannula. […] Oxatomide was administered two hours before the test, which is the optimal conditions according to Nippon Yakurigaku Zasshi (Japanese Journal of Pharmacology), 80, 261 (1982), and the other test drugs were orally administered at a rate of 0.2 ml/100 g body weight one hour before the test using a gastric tube. At the end of measurement, the trachea was blocked with a Kocher clamp and the measured values were expressed in percent taking the value at blockage as the maximum contraction (100%).

[4] = system: blood TXA2; assay: Blood thromboxane (TX)A2 in sensitized guinea pigs; assay type: in vivo, Hartley guinea pigs
Protocol: (§2) Male Wistar rats of 7 weeks old and weighing about 280 g were passively sensitized with rat anti-ovalbumin anti-serum prepared according to the method of Tada and Okumura. Similarly, Hartley guinea pigs of 8 weeks old and weighing about 500 g were passively sensitized with guinea pig anti-ovalbumin antiserum prepared by immunizing with a mixed emulsion of ovalbumin and complete Freund's adjuvant (4.5:5.5) .
(§3) After 24 hours, trachea was incised under urethane ansthetiziation and cannulated with a respirator. Ovalbumin was intravenously administered to elicit the reaction while observing airway resistance according to a modified Konzett and Roessler method. Drugs were orally administered before 1 hour of elicitation of reaction. Blood samples were drawn from artery of rats and guinea pigs before the elicitaiton and after 8 minutes and 15 minutes, respectively, of the elicitation. The obtained blood samples were immediately mixed with 10 mM EDTA disodium and 0.4 mM indomethacin and centrifuged to separate blood plasma. TXB2, a metabolite of TXA2, in the blood plasma was partially purified by C18 column and determined by Enzyme Immunoassay Kit.

[5] = system: blood TXA2; assay: Blood thromboxane (TX)A2 in sensitized rats; assay type: in vivo, Male Wistar rats; details: 1 mg/kg orally
Protocol: as §2, §3

[6] = Acute toxicity in mice; assay type: in vivo; details: mouse, in vivo, suspension in 0.5% carboxymethylcellulose sodium
Protocol: as §1
(§4) Male IcR mice (SPF) (Nippon SLC, weight:24-32 g) of 4 weeks age were fasted for 5 hours before the test. The test compound (III-2) was administered in the form of a suspension in 0.5% carboxymethylcellulose sodium salt (0.2 ml per 10 g). Survived and dead animals were autopsied at day 14 and immediately after the death, respectively.

[7] = system: Male IcR mice; assay: Acute toxicity in mice; assay type: in vivo; details: p.o. and i.p.
Protocol: as §1, §4

O=c1cc(CCN2CCC(c3c[nH]c4ccccc34)CC2)c2ccccc2[nH]1 [III-2, 4-[2-[4-(1H-indol-3-yl)-1-piperidinyl]ethyl]-2-(1H)-quinolinone]
inhibition in vivo at 10 mg/kg [1]: 67.4%
inhibition in vivo at 30 mg/kg ([1]; other dosage/kg: 30 mg): 74.6%
Inhibition % of experimental asthema in guinea pig [2]: 70.3%
inhibition in vivo at 10 mg/kg [3]: 94.8%
inhibition in vivo at 0.1 mg/kg ([3]; other dosage/kg: 0.1 mg): 27.5%
inhibition in vivo at 0.3 mg/kg ([3]; other dosage/kg: 0.3 mg): 84.3%
inhibition in vivo at 1 mg/kg ([3]; other dosage/kg: 1 mg): 73%
inhibition in vivo at 3 mg/kg ([3]; other dosage/kg: 3 mg): 95.5%
Blood TXA2 before reaction ([4]; 3 mg/kg orally 1 hour before elicitation, n = 5): 0.26 ± 0.05 ng/mL
Inhibition of blood TXA2 increase ([4]; 3 mg/kg orally, n = 5): 94.4%
Blood TXA2 after reaction ([4]; 3 mg/kg orally, n = 5, *p < 0.05 vs. control): 0.28 ng/mL
Inhibition of blood TXA2 increase ([5]; n = 11): 68.7%
Blood TXA2 after reaction ([5]; n = 11, ***p < 0.001 vs. control): 0.45 ng/mL
LD50 at 336 h ([6]; ip, read-out: LD50 for i.p.): > 1000 mg/kg
LD50 at 336 h ([6]; po, read-out: LD50 for p.o.): > 3000 mg/kg
Acute toxicity (in words) [7]: low toxity

CN1CCC(=C2c3ccccc3CC(=O)c3sccc32)CC1 [Ketotifen]
Inhibition % of experimental asthema in guinea pig [2]: 50.4%

O=c1[nH]c2ccccc2n1CCCN1CCN(C(c2ccccc2)c2ccccc2)CC1 [Oxatomide, 1-[3-{4-(diphenylmethyl)-1-piperazinyl}propyl]-1,3-dihydro-2H-benzimidazol-2-one]
Inhibition % of experimental asthema in guinea pig [2]: 43.7%

O=c1cc(-c2ccccc2)c2ccccc2n1CCCN1CCC(c2c[nH]c3ccccc23)CC1 [VII-5, 1-[3-[4-(1H-indol-3-yl)-piperidinyl]propyl]-4-phenyl-2(1H)-quinolinone]
inhibition in vivo at 10 mg/kg [1]: 6.7%
inhibition in vivo at 10 mg/kg [3]: 50.1%

O=c1cc(-c2ccc(Cl)cc2)c2ccccc2n1CCCN1CCC(c2c[nH]c3ccccc23)CC1 [VII-6, 4-(4-chlorophenyl)-l-[3-[4-(1H-indol-3-yl)-1-piperidinyl]propyl]-2(1H)-quinolinone]
inhibition in vivo at 10 mg/kg [1]: 9.4%
inhibition in vivo at 10 mg/kg [3]: 19.3%

Cc1ccc(-c2cc(=O)n(CCCN3CCC(c4c[nH]c5ccccc45)CC3)c3ccccc23)cc1 [VII-7, 1-[3-[4-(1H-indol-3-yl)-piperidinyl]propyl]-4-(4-methylphenyl)-2(1H)-quinolinone]
inhibition in vivo at 10 mg/kg [1]: 18.5%
inhibition in vivo at 10 mg/kg [3]: 13.1%
